Experimental data published in US6737383B1, “Herbicidal oxadiazolidines” (priority 1999, dated 2004).

Key:
bedstraw = assay: Test B pre/postemergence bedstraw; format: in vivo, Galium aparine; conditions: Postemergence
Method in brief: (§1)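 Herbicidal effect was estimated by eye on a ten-point control scale after plants spent twelve to sixteen days in a greenhouse following soil or foliar treatment. Foliar sprays targeted plants at one to four leaves; all doses were formulated in a non-phytotoxic solvent with surfactant.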

blackgrass = assay: Test B pre/postemergence blackgrass; format: in vivo, Alopecurus myosuroides
Method in brief: as §1

surinam grass = assay: Test B pre/postemergence surinam grass; format: in vivo, Brachiaria decumbens
Method in brief: as §1

cocklebur = assay: Test B pre/postemergence cocklebur; format: in vivo, Xanthium strumarium
Method in brief: as §1

corn = assay: Test B pre/postemergence corn; format: in vivo, Zea mays
Method in brief: as §1

crabgrass = assay: Test B pre/postemergence crabgrass; format: in vivo, Digitaria sanguinalis
Method in brief: as §1

giant foxtail = assay: Test B pre/postemergence giant foxtail; format: in vivo, Setaria faberii
Method in brief: as §1

morningglory = assay: Test B pre/postemergence morningglory; format: in vivo, Ipomoea hederacea
Method in brief: as §1

pigweed = assay: Test B pre/postemergence pigweed; format: in vivo, Amaranthus retroflexus
Method in brief: as §1

soybean = assay: Test B pre/postemergence soybean; format: in vivo, Glycine max
Method in brief: as §1

velvetleaf = assay: Test B pre/postemergence velvetleaf; format: in vivo, Abutilon theophrasti
Method in brief: as §1

wheat = assay: Test B pre/postemergence wheat; format: in vivo, Triticum aestivum
Method in brief: as §1

wild oat = assay: Test B pre/postemergence wild oat; format: in vivo, Avena fatua
Method in brief: as §1

rice = assay: Test B flood test rice; format: in vivo, Oryza sativa
Method in brief: (§2)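 Flood test on plants grown to the 2-leaf stage; treated plants kept in greenhouse twelve to sixteen days, then visually rated against controls on a 0 (no effect) to 10 (complete control) scale.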

smallflower flatsedge = assay: Test B flood test smallflower flatsedge; format: in vivo, Cyperus difformis
Method in brief: as §2

bamyardgrass = assay: Test B flood test barnyardgrass; format: in vivo, Echinochloa crus-galli
Method in brief: as §2

[1] = Postemergence, Rate 62 g/ha, scale 0 to 10, 0 is no effect, 10 is complete control
[2] = Postemergence, Rate 125 g/ha, scale of 0 to 10 where 0 is no effect and 10 is complete control
[3] = Postemergence, Rate 250 g/ha, scale of 0 to 10, 0 is no effect, 10 is complete control
[4] = Preemergence, Rate 62 g/ha, scale of 0 to 10 where 0 is no effect and 10 is complete control
[5] = Preemergence, Rate 125 g/ha, scale of 0 to 10 where 0 is no effect and 10 is complete control
[6] = Preemergence, Rate 250 g/ha, scale 0 to 10 (0 no effect, 10 complete control)
[7] = Preemergence, Rate 500 g/ha, scale of 0 to 10 where 0 is no effect and 10 is complete control
[8] = Rate 500 g/ha, Postemergence, scale 0 to 10, 0 is no effect, 10 is complete control
[9] = Rate 62 g/ha, flood test species, Pre-emergence, visual evaluation after twelve to sixteen days
[10] = Rate 125 g/ha, under heading Pre-emergence, flood test species, visual evaluation after twelve to sixteen days
[11] = Rate 250 g/ha, Pre-emergence (flood test species), scale 0 to 10, 0 is no effect, 10 is complete control
[12] = Rate 500 g/ha, Pre-emergence section of Table B, 0 to 10 scale (0 no effect, 10 complete control)

CC(C)N(C(=O)n1oc(=O)n(CC2CCCCO2)c1=O)c1ccccc1 (centres unmarked) [Compound 659]
Plant response rating, Bedstraw (bedstraw; Rate 62 g/ha, scale 0 to 10, 0 is no effect, 10 is complete control): 0
Bedstraw plant response rating (bedstraw; Rate 125 g/ha, scale of 0 to 10 where 0 is no effect and 10 is complete control): 0
Plant response rating, Blackgrass (blackgrass; [1]): 1
Blackgrass plant response rating (blackgrass; [2]): 6
Blackgrass plant response rating (blackgrass; [3]): 7
Blackgrass plant response rating (blackgrass; [4]): 3
Blackgrass plant response rating (blackgrass; [5]): 6
Plant response rating, Blackgrass (blackgrass; [6]): 7
Plant response rating, Blackgrass (blackgrass; [7]): 9
Blackgrass plant response rating (blackgrass; [8]): 7
Plant response rating, B. signalgrass (surinam grass; [1]): 0
Plant response rating, B. signalgrass (surinam grass; [2]): 5
B. signalgrass plant response rating (surinam grass; [3]): 5
B. signalgrass plant response rating (surinam grass; [4]): 2
B. signalgrass plant response rating (surinam grass; [5]): 4
Plant response rating, B. signalgrass (surinam grass; [6]): 4
Plant response rating, B. signalgrass (surinam grass; [7]): 8
B. signalgrass plant response rating (surinam grass; [8]): 8
Plant response rating, Cocklebur (cocklebur; [1]): 0
Cocklebur plant response rating (cocklebur; [2]): 0
Cocklebur plant response rating (cocklebur; [3]): 0
Cocklebur plant response rating (cocklebur; [4]): 0
Cocklebur plant response rating (cocklebur; [5]): 0
Plant response rating, Cocklebur (cocklebur; [6]): 0
Plant response rating, Cocklebur (cocklebur; [7]): 0
Cocklebur plant response rating (cocklebur; [8]): 2
Plant response rating, Corn (corn; [1]): 0
Corn plant response rating (corn; [2]): 0
Corn plant response rating (corn; [3]): 4
Corn plant response rating (corn; [4]): 0
Corn plant response rating (corn; [5]): 0
Plant response rating, Corn (corn; [6]): 7
Plant response rating, Corn (corn; [7]): 9
Corn plant response rating (corn; [8]): 6
Plant response rating, Crabgrass (crabgrass; [1]): 1
Crabgrass plant response rating (crabgrass; [2]): 6
Crabgrass plant response rating (crabgrass; [3]): 6
Crabgrass plant response rating (crabgrass; [4]): 8
Crabgrass plant response rating (crabgrass; [5]): 8
Plant response rating, Crabgrass (crabgrass; [7]): 10
Crabgrass plant response rating (crabgrass; [8]): 8
Plant response rating, Giant foxtail (giant foxtail; [1]): 5
Giant foxtail plant response rating (giant foxtail; [2]): 7
Giant foxtail plant response rating (giant foxtail; [3]): 8
Giant foxtail plant response rating (giant foxtail; [4]): 9
Giant foxtail plant response rating (giant foxtail; [5]): 9
Plant response rating, Giant foxtail (giant foxtail; [6]): 9
Plant response rating, Giant foxtail (giant foxtail; [7]): 10
Giant foxtail plant response rating (giant foxtail; [8]): 8
Plant response rating, Morningglory (morningglory; [1]): 4
Morningglory plant response rating (morningglory; [2]): 10
Morningglory plant response rating (morningglory; [3]): 10
Morningglory plant response rating (morningglory; [4]): 0
Morningglory plant response rating (morningglory; [5]): 0
Plant response rating, Morningglory (morningglory; [6]): 0
Plant response rating, Morningglory (morningglory; [7]): 6
Morningglory plant response rating (morningglory; [8]): 10
Plant response rating, Redroot pigweed (pigweed; [1]): 0
Redroot pigweed plant response rating (pigweed; [2]): 0
Redroot pigweed plant response rating (pigweed; [4]): 6
Redroot pigweed plant response rating (pigweed; [5]): 6
Plant response rating, Redroot pigweed (pigweed; [6]): 9
Plant response rating, Redroot pigweed (pigweed; [7]): 10
Redroot pigweed plant response rating (pigweed; [8]): 7
Plant response rating, Soybean (soybean; [1]): 2
Soybean plant response rating (soybean; [2]): 3
Soybean plant response rating (soybean; [4]): 0
Soybean plant response rating (soybean; [5]): 0
Plant response rating, Soybean (soybean; [6]): 0
Plant response rating, Soybean (soybean; [7]): 2
Soybean plant response rating (soybean; [8]): 7
Plant response rating, Velvetleaf (velvetleaf; [1]): 0
Velvetleaf plant response rating (velvetleaf; [2]): 3
Velvetleaf plant response rating (velvetleaf; [4]): 0
Velvetleaf plant response rating (velvetleaf; [5]): 0
Plant response rating, Velvetleaf (velvetleaf; [6]): 6
Plant response rating, Velvetleaf (velvetleaf; [7]): 7
Velvetleaf plant response rating (velvetleaf; [8]): 6
Plant response rating, Wheat (wheat; [1]): 0
Wheat plant response rating (wheat; [2]): 0
Wheat plant response rating (wheat; [4]): 0
Wheat plant response rating (wheat; [5]): 0
Plant response rating, Wheat (wheat; [6]): 2
Plant response rating, Wheat (wheat; [7]): 7
Wheat plant response rating (wheat; [8]): 5
Plant response rating, Wild oats (wild oat; [1]): 0
Wild oats plant response rating (wild oat; [2]): 0
Wild oats plant response rating (wild oat; [4]): 0
Wild oats plant response rating (wild oat; [5]): 0
Plant response rating, Wild oats (wild oat; [6]): 3
Plant response rating, Wild oats (wild oat; [7]): 9
Wild oats plant response rating (wild oat; [8]): 3
Plant response rating, Rice (0 to 10 scale, 0 is no effect, 10 is complete control) (rice; [9]): 0
Rice plant response rating (0 to 10 scale, 0 is no effect, 10 is complete control) (rice; [10]): 0
Rice plant response rating (rice; [11]): 0
Rice plant response rating (rice; [12]): 0
Plant response rating, S. Flatsedge (0 to 10 scale, 0 is no effect, 10 is complete control) (smallflower flatsedge; [9]): 0
S. Flatsedge plant response rating (0 to 10 scale, 0 is no effect, 10 is complete control) (smallflower flatsedge; [10]): 0
S. Flatsedge plant response rating (smallflower flatsedge; [11]): 0
S. Flatsedge plant response rating (smallflower flatsedge; [12]): 5
Plant response rating, Barnyardgrass (0 to 10 scale, 0 is no effect, 10 is complete control) (bamyardgrass; [9]): 0
Barnyardgrass plant response rating (0 to 10 scale, 0 is no effect, 10 is complete control) (bamyardgrass; [10]): 2
Barnyardgrass plant response rating (bamyardgrass; [11]): 2
Barnyardgrass plant response rating (bamyardgrass; [12]): 7
